Measurements as given in ChEMBL document CHEMBL1154088, “Synthesis, biological evaluation and docking studies of novel benzopyranone congeners for their expected activity as anti-inflammatory, analgesic and antipyretic agents” (Bioorg Med Chem, 2009).

Key:
Rattus norvegicus [1] = test: Antipyretic activity against yeast-induced hyperpyrexia in hyperthermic rat assessed as rectal temperature at one-tenth of LD50 administered subcutaneously 18 hrs after yeast challenge measured after 3 hrs (Rvb=39.20 +/- 0.24 degC); type: functional
Rattus norvegicus [2] = test: Antipyretic activity against yeast-induced hyperpyrexia in hyperthermic rat assessed as rectal temperature at one-tenth of LD50 administered subcutaneously 18 hrs after yeast challenge measured after 2 hrs (Rvb=39.11 +/- 0.26 degC); type: functional
[3] = Toxicity in sc dosed albino mouse up to 24 hrs; type: organism-based; conditions: in vivo
Mus musculus [4] = test: Analgesic activity in mouse assessed as protection against acetic acid-induced writhing at one-tenth of LD50 administered subcutaneously 30 mins before acetic acid challenge measured after 2 hrs relative to control; type: functional
Mus musculus [5] = test: Analgesic activity in mouse assessed as protection against acetic acid-induced writhing at one-tenth of LD50 administered subcutaneously 30 mins before acetic acid challenge measured after 4 hrs relative to control; type: functional
Mus musculus [6] = test: Analgesic activity in mouse assessed as protection against acetic acid-induced writhing at one-tenth of LD50 administered subcutaneously 30 mins before acetic acid challenge measured after 3 hrs relative to control; type: functional
Rattus norvegicus [7] = test: Antipyretic activity against yeast-induced hyperpyrexia in hyperthermic rat assessed as rectal temperature at one-tenth of LD50 administered subcutaneously 18 hrs after yeast challenge measured after 4 hrs (Rvb=39.17 +/- 0.20 degC); type: functional
Mus musculus [8] = test: Analgesic activity in mouse assessed as protection against acetic acid-induced writhing at one-tenth of LD50 administered subcutaneously 30 mins before acetic acid challenge measured after 1 hr relative to control; type: functional
Rattus norvegicus [9] = test: Antipyretic activity against yeast-induced hyperpyrexia in hyperthermic rat assessed as rectal temperature at one-tenth of LD50 administered subcutaneously 18 hrs after yeast challenge measured after 1 hr (Rvb=39.24 +/- 0.22 degC); type: functional
Rattus norvegicus [10] = test: Antiinflammatory activity against carrageenan-induced foot paw edema in rat assessed as reduction in paw size at one-tenth of LD50 administered subcutaneously 30 mins before carrageenan challenge measured after 3 hrs relative to control; type: functional; design: scale not given: the % may be the effect or the level left

| SMILES | Activity (Rattus norvegicus [1]) [°C] | Activity (Rattus norvegicus [2]) [°C] | LD50 at 24 h [3] [mg/kg] | Activity (Mus musculus [4]) [%] | Activity (Mus musculus [5]) [%] | Activity (Mus musculus [6]) [%] | Activity (Rattus norvegicus [7]) [°C] | Activity (Mus musculus [8]) [%] | Activity (Rattus norvegicus [9]) [°C] | Activity (Rattus norvegicus [10]) [%] |
| --- | --- | --- | --- | --- | --- | --- | --- | --- | --- | --- |
| COc1ccc(C2CC(c3c(O)ccc4c(-c5ccccc5)cc(=O)oc34)=NN2)cc1 (stereo not given) | 38.91 | 38.91 | 330 | 10.71 | 0.71 | 5.23 | 39.15 | 10 | 38.81 | 8.7 |
| COc1ccc(-c2cc(-c3c(O)ccc4c(-c5ccccc5)cc(=O)oc34)[nH]c(=O)c2C#N)cc1 | 38.64 | 38.71 | 330 | 2.84 | 1.18 | 9.47 | 38.91 | 0.94 | 38.81 | 5.78 |
| C/C(=N\Nc1ccc([N+](=O)[O-])cc1[N+](=O)[O-])c1c(O)ccc2c(-c3ccccc3)cc(=O)oc12 | 38.34 | 38.05 | 370 | 18.35 | 4.47 | 13.41 | 38.93 | 16.7 | 38.42 | 0.67 |
| O=c1cc(-c2ccccc2)c2ccc(O)c(C3=NN(c4ccccc4)C(c4ccc(Cl)cc4)C3)c2o1 (stereo not given) | 38.91 | 38.81 | 330 | 2.63 | 3.11 | 3.35 | 39.05 | 0.71 | 38.91 | 18.85 |
| O=c1cc(-c2ccccc2)c2ccc(O)c(C3=NN(c4ccc([N+](=O)[O-])cc4[N+](=O)[O-])C(c4ccc(Cl)cc4)C3)c2o1 (stereo not given) | 38.91 | 38.91 | 390 | 1.4 | 1.4 | 0.93 | 38.94 | 0.93 | 38.81 | 11.27 |
| COc1ccc(C2CC(c3c(O)ccc4c(-c5ccccc5)cc(=O)oc34)=NN2c2ccc([N+](=O)[O-])cc2[N+](=O)[O-])cc1 (stereo not given) | 38.91 | 38.91 | 370 | 4.78 | 3.58 | 3.58 | 38.91 | 3.58 | 38.81 | 11.61 |
| CN(C)c1ccc(/C=C/C(=O)c2c(O)ccc3c(-c4ccccc4)cc(=O)oc23)cc1 | 38.51 | 38.21 | 390 | 36.94 | 9.41 | 22.82 | 38.86 | 37.41 | 38.31 | 17.4 |
| CC(=O)c1c(O)ccc2c(-c3ccccc3)cc(=O)oc12 | 39 | 38.91 | 290 | 2.34 | 2.81 | 4.92 | 39.06 | 0 | 38.91 | 20.27 |
| N#Cc1c(-c2ccc(Cl)cc2)cc(-c2c(O)ccc3c(-c4ccccc4)cc(=O)oc23)[nH]c1=O | 38.81 | 38.84 | 310 | 1.18 | 1.66 | 0.71 | 38.91 | 0 | 38.91 | 16.35 |
| CN(C)c1ccc(C2CC(c3c(O)ccc4c(-c5ccccc5)cc(=O)oc34)=NN2)cc1 (stereo not given) | 38.91 | 38.9 | 310 | 1.64 | 2.11 | 2.35 | 38.91 | 1.41 | 38.91 | 8.7 |
| COc1ccc(/C=C/C(=O)c2c(O)ccc3c(-c4ccccc4)cc(=O)oc23)cc1 | 38.95 | 38.91 | 290 | 9.41 | 3.52 | 9.41 | 39.11 | 9.41 | 38.91 | 12.35 |
| COc1ccc(C2CC(c3c(O)ccc4c(-c5ccccc5)cc(=O)oc34)=NN2c2ccccc2)cc1 (stereo not given) | 38.44 | 38.14 | 370 | 39.09 | 6.63 | 18.24 | 38.87 | 41.23 | 38.51 | 18.85 |
| O=c1cc(-c2ccccc2)c2ccc(O)c(C3=NNC(c4ccc(Cl)cc4)C3)c2o1 (stereo not given) | 38.9 | 38.84 | 310 | 1.65 | 1.18 | 1.65 | 38.91 | 0.71 | 38.9 | 17.4 |
| C/C(=N\Nc1ccccc1)c1c(O)ccc2c(-c3ccccc3)cc(=O)oc12 | 38.91 | 38.81 | 290 | 2.58 | 1.17 | 2.81 | 38.91 | 3.75 | 39.11 | 12.35 |
| O=C(/C=C/c1ccc(Cl)cc1)c1c(O)ccc2c(-c3ccccc3)cc(=O)oc12 | 38.84 | 38.91 | 330 | 0.94 | 0.94 | 1.65 | 38.91 | 0 | 39.05 | 20.27 |
| CN(C)c1ccc(C2CC(c3c(O)ccc4c(-c5ccccc5)cc(=O)oc34)=NN2c2ccccc2)cc1 (stereo not given) | 38.43 | 38.01 | 330 | 40.23 | 6.82 | 20.47 | 38.88 | 39.76 | 38.4 | 5.78 |
| CN(C)c1ccc(C2CC(c3c(O)ccc4c(-c5ccccc5)cc(=O)oc34)=NN2c2ccc([N+](=O)[O-])cc2[N+](=O)[O-])cc1 (stereo not given) | 38.42 | 38.1 | 330 | 35.29 | 7.29 | 19.05 | 38.91 | 36.94 | 38.54 | 17.06 |
| C/C(=N\c1ccccc1N)c1c(O)ccc2c(-c3ccccc3)cc(=O)oc12 | 38.81 | 38.41 | 370 | 12.44 | 1.64 | 9.62 | 38.9 | 9.85 | 38.61 | 8.7 |
